What follows are compounds tested against T1, HCV polymerase (Hepatitis C virus genotype 1b, UniProt P26663) (assay: biochemical).
T1 construct: a region encoding NS5B (J Virol 1991 March, 65(3), 1105-13, 544 amino acids after deletion of 47 amino acids on the C-terminal); 6xHis (C); made in house; host or cells: Escherichia coli
Design: species or system HCV BK strain
In short: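 Recombinant HCV BK-strain NS5B (C-terminal 47 aa deleted, His6-tagged, E. coli), 0.5 μg/ml, run with 5 μg/ml in vitro-transcribed RNA template (polyU/3′X), ATP/GTP/CTP 50 μM, UTP 2 μM plus [3H]UTP, pH 7.5, 25° C, 90 min. TCA-precipitated RNA counted by scintillation; IC50 from activity with vs without compound.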

T1 sequence (P26663 2420-2963): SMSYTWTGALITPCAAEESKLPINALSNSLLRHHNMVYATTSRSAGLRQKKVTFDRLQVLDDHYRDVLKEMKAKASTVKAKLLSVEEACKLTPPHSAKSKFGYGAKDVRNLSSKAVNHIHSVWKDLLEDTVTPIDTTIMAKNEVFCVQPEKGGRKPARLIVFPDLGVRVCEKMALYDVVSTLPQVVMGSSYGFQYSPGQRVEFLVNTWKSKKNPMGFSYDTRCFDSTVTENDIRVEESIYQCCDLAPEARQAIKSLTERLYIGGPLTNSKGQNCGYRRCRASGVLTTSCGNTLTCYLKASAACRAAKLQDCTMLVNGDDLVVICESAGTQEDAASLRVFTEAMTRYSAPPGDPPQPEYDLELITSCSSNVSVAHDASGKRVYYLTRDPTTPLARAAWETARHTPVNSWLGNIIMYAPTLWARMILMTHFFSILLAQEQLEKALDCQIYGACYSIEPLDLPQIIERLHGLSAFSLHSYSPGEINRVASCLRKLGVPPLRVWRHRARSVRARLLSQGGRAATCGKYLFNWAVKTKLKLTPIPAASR

| Compound | IC50 [µM] |
| --- | --- |
| COc1ccc2c(c1)OCCn1c-2c(C2CCCCC2)c2ccc(C(=O)N[C@@H](Cc3ccc(O)cc3)C(=O)NCCO)cc21 [Example 2-387, N—[(S)-1-(2-hydroxyethylcarbamoyl)-2-(4-hydroxyphenyl)ethyl]-12-cyclohexyl-3-methoxy-6,7-dihydro-5-oxa-7a-azadibenzo[a,e]azulene-9-carboxamide] | < 0.1 |
| COc1ccc2c(c1)OCCn1c-2c(C2CCCCC2)c2ccc(C(=O)N[C@@H](Cc3ccc(O)cc3)c3nc(C)no3)cc21 [Example 2-388, N—[(S)-2-(4-hydroxyphenyl)-1-(3-methyl-1,2,4-oxadiazol-5-yl)ethyl]-12-cyclohexyl-3-methoxy-6,7-dihydro-5-oxa-7a-azadibenzo[a,e]azulene-9-carboxamide] | < 0.1 |
| COc1ccc2c(c1)OCCn1c-2c(C2CCCCC2)c2ccc(C(=O)N[C@@H](Cc3ccc(O)cc3)C(=O)NCCN(C)C)cc21 [Example 2-389, N—[(S)-1-(2-dimethylaminoethylcarbamoyl)-2-(4-hydroxyphenyl)ethyl]-12-cyclohexyl-3-methoxy-6,7-dihydro-5-oxa-7a-azadibenzo[a,e]azulene-9-carboxamide] | < 0.1 |
| COc1ccc2c(c1)OCCn1c-2c(C2CCCCC2)c2ccc(C(=O)NC(C)(C)c3nc4cc(C(=O)NCCO)ccc4[nH]3)cc21 [Example 2-390, N-{1-[5-(2-hydroxyethylcarbamoyl)-1H-benzimidazol-2-yl]-1-methylethyl}-12-cyclohexyl-3-methoxy-6,7-dihydro-5-oxa-7a-azadibenzo[a,e]azulene-9-carboxamide] | < 0.1 |
| COC(=O)[C@H](Cc1ccc(NC(=O)N(C)C)cc1)NC(=O)c1ccc2c(C3CCCCC3)c3n(c2c1)CCOc1cc(OC)ccc1-3 [Example 2-391, methyl (S)-2-[(12-cyclohexyl-3-methoxy-6,7-dihydro-5-oxa-7a-azadibenzo[a,e]azulene-9-carbonyl)amino]-3-[4-(3,3-dimethylureido)phenyl]propionate] | < 0.1 |
| COC(=O)[C@H](Cc1ccc(OCCCO)cc1)NC(=O)c1ccc2c(C3CCCCC3)c3n(c2c1)CCOc1cc(OC)ccc1-3 [Example 2-392, methyl (S)-2-[(12-cyclohexyl-3-methoxy-6,7-dihydro-5-oxa-7a-azadibenzo[a,e]azulene-9-carbonyl)amino]-3-[4-(3-hydroxypropoxy)phenyl]propionate] | < 0.1 |
| COC(=O)C(Cc1ccc(CO)cc1)NC(=O)c1ccc2c(C3CCCCC3)c3n(c2c1)CCOc1cc(OC)ccc1-3 (stereo not shown) [Example 2-393, methyl 2-[(12-cyclohexyl-3-methoxy-6,7-dihydro-5-oxa-7a-azadibenzo[a,e]azulene-9-carbonyl)amino]-3-(4-hydroxymethylphenyl)propionate] | < 0.1 |
| COc1ccc2c(c1)OCCn1c-2c(C2CCCCC2)c2ccc(C(=O)NC(C)(C)c3nc4cccnc4[nH]3)cc21 [Example 2-394, N-[1-(3H-imidazo[4,5-b]pyridin-2-yl)-1-methylethyl]-12-cyclohexyl-3-methoxy-6,7-dihydro-5-oxa-7a-azadibenzo[a,e]azulene-9-carboxamide] | < 0.1 |
| COc1ccc2c(c1)OCCn1c-2c(C2CCCCC2)c2ccc(C(=O)NC(C)(C)c3nc4cc(C(=O)O)ccc4n3CCN3CCOCC3)cc21 [Example 2-395, 2-{1-[(12-cyclohexyl-3-methoxy-6,7-dihydro-5-oxa-7a-azadibenzo[a,e]azulene-9-carbonyl)amino]-1-methylethyl]-1-[2-(morpholin-4-yl)ethyl]-1H-benzimidazole-5-carboxylic acid] | < 0.1 |
| CNC(=O)c1ccc2[nH]c(C(C)(C)NC(=O)c3ccc4c(C5CCCCC5)c5n(c4c3)CCOc3cc(OC)ccc3-5)nc2c1 [Example 2-396, N-[1-methyl-1-(5-methylcarbamoyl-1H-benzimidazol-2-yl)ethyl]-12-cyclohexyl-3-methoxy-6,7-dihydro-5-oxa-7a-azadibenzo[a,e]azulene-9-carboxamide] | < 0.1 |
| COc1ccc2c(c1)OCCn1c-2c(C2CCCCC2)c2ccc(C(=O)NC3(C(=O)Nc4ccc(C(=O)O)cc4)CCN(C)CC3)cc21 [Example 2-397, 4-([4-[(12-cyclohexyl-3-methoxy-6,7-dihydro-5-oxa-7a-azadibenzo[a,e]azulene-9-carbonyl)amino]-1-methylpiperidine-4-carbonyl)amino)benzoic acid] | < 0.1 |
| CCOC(=O)c1ccc(-c2cnc(C(C)(C)NC(=O)c3ccc4c(C5CCCCC5)c5n(c4c3)CCOc3cc(OC)ccc3-5)[nH]2)cc1 [Example 2-398, ethyl 4-(2-{1-[(12-cyclohexyl-3-methoxy-6,7-dihydro-5-oxa-7a-azadibenzo[a,e]azulene-9-carbonyl)amino]-1-methylethyl}-3H-imidazol-4-yl)benzoate] | < 0.1 |
| COc1ccc2c(c1)OCCn1c-2c(C2CCCCC2)c2ccc(C(=O)NC(C)(C)c3ncc(-c4ccc(C(=O)O)cc4)[nH]3)cc21 [Example 2-399, 4-(2-{1-[(12-cyclohexyl-3-methoxy-6,7-dihydro-5-oxa-7a-azadibenzo[a,e]azulene-9-carbonyl)amino]-1-methylethyl}-3H-imidazol-4-yl)benzoic acid] | < 0.1 |
| COc1ccc2c(c1)OCCn1c-2c(C2CCCCC2)c2ccc(C(=O)NC3(C(=O)O)CCOCC3)cc21 [Example 2-400, 4-[(12-cyclohexyl-3-methoxy-6,7-dihydro-5-oxa-7a-azadibenzo[a,e]azulene-9-carbonyl)amino]tetrahydropyran-4-carboxylic acid] | < 0.1 |
| COc1ccc2c(c1)OCCn1c-2c(C2CCCCC2)c2ccc(C(=O)NC3(C(=O)Nc4ccc(/C=C/C(=O)O)cc4)CCOCC3)cc21 [Example 2-401, (E)-3-[4-({4-[(12-cyclohexyl-3-methoxy-6,7-dihydro-5-oxa-7a-azadibenzo[a,e]azulene-9-carbonyl)amino]tetrahydropyran-4-carbonyl}amino)phenyl]acrylic acid] | < 0.1 |
| COc1ccc2c(c1)OCCn1c-2c(C2CCCCC2)c2ccc(C(=O)NC3(C(=O)Nc4ccc(C(=O)O)cc4)CCOCC3)cc21 [Example 2-402, 4-({4-[(12-cyclohexyl-3-methoxy-6,7-dihydro-5-oxa-7a-azadibenzo[a,e]azulene-9-carbonyl)amino]tetrahydropyran-4-carbonyl}amino)benzoic acid] | < 0.1 |
| COc1ccc2c(c1)OCCn1c-2c(C2CCCCC2)c2ccc(C(=O)NC(C)(C)c3nc4cc(C(=O)O)ccc4c(=O)[nH]3)cc21 [Example 2-403, 2-{1-[(12-cyclohexyl-3-methoxy-6,7-dihydro-5-oxa-7a-azadibenzo[a,e]azulene-9-carbonyl)amino]-1-methylethyl}-4-oxo-3,4-dihydroquinazoline-7-carboxylic acid] | < 0.1 |
| COc1ccc2c(c1)OCCn1c-2c(C2CCCCC2)c2ccc(C(=O)NC(C)(C)c3nc(N(C)C)c4ccc(C(=O)O)cc4n3)cc21 [Example 2-404, 2-{1-[(12-cyclohexyl-3-methoxy-6,7-dihydro-5-oxa-7a-azadibenzo[a,e]azulene-9-carbonyl)amino]-1-methylethyl]-4-dimethylaminoquinazoline-7-carboxylic acid] | < 0.1 |
| COc1ccc2c(c1)OCCn1c-2c(C2CCCCC2)c2ccc(C(=O)NC(C)(C)c3nc4cc(CO)ccc4[nH]3)cc21 [Example 2-405, N-[1-(5-hydroxymethyl-1H-benzimidazol-2-yl)-1-methylethyl]-12-cyclohexyl-3-methoxy-6,7-dihydro-5-oxa-7a-azadibenzo[a,e]azulene-9-carboxamide] | < 0.1 |
| COc1ccc2c(c1)OCCn1c-2c(C2CCCCC2)c2ccc(C(=O)NC3(C(=O)Nc4ccc(C(C)(C)C(=O)O)cc4)CCC3)cc21 [Example 2-406, 2-[4-({1-[(12-cyclohexyl-3-methoxy-6,7-dihydro-5-oxa-7a-azadibenzo[a,e]azulene-9-carbonyl)amino]cyclobutanecarbonyl}amino)phenyl]-2-methylpropionic acid] | < 0.1 |
| COC(=O)Nc1ccc(C[C@H](NC(=O)c2ccc3c(C4CCCCC4)c4n(c3c2)CCOc2cc(OC)ccc2-4)c2nc(C)no2)cc1 [Example 2-407, methyl {4-[(S)-2-[(12-cyclohexyl-3-methoxy-6,7-dihydro-5-oxa-7a-azadibenzo[a,e]azulene-9-carbonyl)amino]-2-(3-methyl-1,2,4-oxadiazol-5-yl)ethyl]phenyl}carbamate] | < 0.1 |
| COc1ccc2c(c1)OCCn1c-2c(C2CCCCC2)c2ccc(C(=O)NC(C)(C)c3nc4ccccc4[nH]3)cc21 [Example 2-408, N-[1-(1H-benzimidazol-2-yl)-1-methylethyl]-12-cyclohexyl-3-methoxy-6,7-dihydro-5-oxa-7a-azadibenzo[a,e]azulene-9-carboxamide] | < 0.1 |
| COc1ccc2c(c1)OCCn1c-2c(C2CCCCC2)c2ccc(C(=O)NC3(c4nc5ccc(C(=O)O)cc5[nH]4)CCOCC3)cc21 [Example 2-409, 2-{4-[(12-cyclohexyl-3-methoxy-6,7-dihydro-5-oxa-7a-azadibenzo[a,e]azulene-9-carbonyl)amino]tetrahydropyran-4-yl]-3H-benzimidazole-5-carboxylic acid] | < 0.1 |
| COc1ccc2c(c1)OCCn1c-2c(C2CCCCC2)c2ccc(C(=O)N[C@@H](Cc3ccc(NC(=O)OCc4ccccc4)cc3)c3csc(C)n3)cc21 [Example 2-410, benzyl (4-[(S)-2-[(12-cyclohexyl-3-methoxy-6,7-dihydro-5-oxa-7a-azadibenzo[a,e]azulene-9-carbonyl)amino]-2-(2-methylthiazol-4-yl)ethyl]phenyl}carbamate] | < 0.1 |
| COc1ccc2c(c1)OCCn1c-2c(C2CCCCC2)c2ccc(C(=O)NC(C)(C)c3nc4cc(/C=C/C(=O)O)ccc4[nH]3)cc21 [Example 2-411, (E)-3-(2-{1-[(12-cyclohexyl-3-methoxy-6,7-dihydro-5-oxa-7a-azadibenzo[a,e]azulene-9-carbonyl)amino]-1-methylethyl}-1H-benzimidazol-5-yl)acrylic acid] | < 0.1 |
